TGI data for 7 compounds are collected here from PubChem BioAssay (NCI).

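Tested at 5 concentrations; 48 h exposure; 96-well plates; endpoints linearly interpolated, else capped at highest concentration. TGI: concentration producing complete growth inhibition.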 Where a SMILES comes first, the peptide text is derived from it. The star is where a group is joined. Boc = CC(C)(C)OC(=O)*

Common to all, as to experiment: NCI anticancer screen, dose series, 48 h
In test [1] the test system is 786-0 renal.
Test [2] has as its system CAKI-1 renal.
Test [3] relates to HCT-15 colon.
For test [4], the system named is HOP-92 NSCLC.
The test system of test [5] is HS 578T breast.
The subject of test [6] is MDA-N.
Test [7] deals with NCI-H226 lung.
The subject of test [8] is NCI-H522 lung.
Test [9] concerns OVCAR-4 ovarian.
The test system of test [10] is OVCAR-8 ovarian.
Test [11] relates to PC-3 prostate.
The test system of test [12] is RXF 393 renal.
Test [13] deals with SF-268 CNS.
The subject of test [14] is SN12C renal.
Test [15] has as its system SNB-75 CNS.
For test [16], the system named is SR leukemia.
Test [17] concerns SW-620 colon.
In test [18] the test system is UACC-257 melanoma.
Test [19] relates to UO-31 renal.

As for `CN(C)/C=N/S(=O)(=O)c1nn2c(C=O)c(-c3ccc([N+](=O)[O-])cc3)nc2s1`, the TGI in test [1] was 9.03 µM; in test [2], 7.13 µM; in test [3], > 49.6 µM; in test [4], 53.5 µM; in [5] it was > 71.8 µM; in test [6], 17 µM. Also, the TGI in test [7] was > 95.1 µM; in test [8] it was 3.86 µM; in test [9], 39.7 µM; in test [10] it was 47.4 µM; in [11] it was > 51.9 µM; in test [12], > 67 µM. Also, the TGI in [13] is > 72.9 µM; in [14], 22.6 µM; in [15], > 86.9 µM; in test [16], > 43.3 µM; in test [17], > 34 µM; in test [18], 40.5 µM. The same compound gave a TGI in test [19] of 13.2 µM.

On to `CCOC(=O)[C@H]1C[C@]23CN(C(=O)OC(C)(C)C)CC[C@H]2CCC2(SCCCS2)[C@@H]3N1C`, for which the TGI in test [1] is > 100 µM; in [2], > 100 µM; in test [3], > 100 µM; in test [4], 51 µM; in test [5], > 100 µM; in [6] it was > 100 µM. In addition, the TGI is > 100 µM in test [7]; > 100 µM in [8]; 74.2 µM in test [9]; > 100 µM in test [10]; 89.9 µM in test [11]; 99.7 µM in test [12]. Moreover, the TGI is > 100 µM in test [13]; 44.3 µM in test [14]; > 100 µM in test [15]; 76.5 µM in [16]; > 100 µM in [17]; 77.5 µM in [18]. Moreover, in [19], the TGI was > 100 µM.

On to `COc1ccc2c(c1)c1c3c(ccc4ncn2c43)N(CCN(C)C)CCN=1`, for which the TGI in [1] turned out to be 1.3 µM; in [2], 9.13 µM; in test [3], 1.31 µM; in test [4], 4.07 µM; in test [5], 3.16 µM; in test [6], 1.59 µM. The TGI in [7] was determined as 2.89 µM; in test [8], 0.806 µM; in test [9] it was 1.16 µM; in [10], 1.56 µM; in test [11], 1.62 µM; in test [12], 2.85 µM. The TGI in [13] was 4.24 µM; in test [14], 1.26 µM; in test [15], 2.26 µM; in [16], 0.209 µM; in test [17], 2.13 µM; in test [18], 3.66 µM. Further, the TGI in test [19] came out at 1.74 µM.

Regarding `CCOC(=O)c1c(N2CCOCC2)[nH]c(=O)c(C(c2ccc(Cl)c([N+](=O)[O-])c2)c2c(O)c(C(=O)OCC)c(N3CCOCC3)[nH]c2=O)c1O`, the TGI in [1] is > 100 µM; in test [2] it was > 100 µM; in [3], > 100 µM; in test [4], 69.4 µM; in test [5], > 100 µM; in test [6] it was 70.1 µM. The TGI is > 100 µM in test [7]; 55.2 µM in [8]; > 100 µM in [9]; 37 µM in [10]; 50.1 µM in test [11]; > 100 µM in [12]. Further, the TGI in test [13] was > 100 µM; in test [14], 51 µM; in test [15] it was > 100 µM; in [16], > 100 µM; in [17] it was 58.7 µM; in test [18], > 100 µM. Also, in [19], the TGI turned out to be 95.5 µM.

For the compound `CC(=O)NNc1nc(C)c(C(/C=C/c2ccc(NC(C)=O)cc2)=N/NS(=O)(=O)c2ccc(C)cc2)s1`, the TGI in [1], in [2], in test [3], in test [4], in test [5] and in test [6] was > 100 µM each time. Besides, the TGI in test [7], in test [8], in test [9], in [10], in test [11] and in test [12] was > 100 µM throughout. For the same compound, the TGI in test [13], in test [14], in test [15], in test [16], in test [17] and in test [18] was > 100 µM each time. In addition, the TGI in [19] is > 100 µM.

In the case of `CCOC(=O)C(CC(C)C)NC(=O)C(Cc1ccccc1)NC(=O)CNC(=O)OC(C)(C)C` (stereo not drawn) (Boc-Gly-Phe-Leu-OEt; configuration not given here), the TGI amounted to 36.9 µM in [1]; 23.2 µM in test [2]; 35.8 µM in test [3]; 64 µM in [4]; 96 µM in [5]; 28.4 µM in test [6]. The TGI is 41 µM in test [7]; 34.8 µM in test [8]; 71.1 µM in test [9]; 46 µM in test [10]; 35.7 µM in test [11]; 49 µM in test [12]. The TGI was found to be 43.3 µM in test [13]; 35.4 µM in test [14]; 38.6 µM in test [15]; 36.5 µM in test [16]; 39.9 µM in test [17]; 36.3 µM in test [18]. Further, the TGI in test [19] is > 100 µM.

For the compound `COc1ccc2[nH]c3c(C)c4cnccc4c(C)c3c2c1`, the TGI in [1] is 1.64 µM; in test [2] it was > 10 µM; in test [3], 3.4 µM; in test [4], > 10 µM; in test [5], > 10 µM; in test [6], 3.43 µM. The TGI in [7] was 9.27 µM; in test [8], 4.43 µM; in test [9], 5.17 µM; in [10], 2.2 µM; in test [11], > 10 µM; in test [12], 6.02 µM. Also, the TGI was > 10 µM in test [13]; > 10 µM in [14]; > 10 µM in test [15]; > 10 µM in test [16]; 3.4 µM in test [17]; > 10 µM in [18].
